Here are results for one compound from patent US20260216174A1, “TREATMENT OF ER+ BREAST CANCER COMPRISING HOMOLOGOUS RECOMBINATION DEFICIENCY USING PARG INHIBITOR” (IDEAYA BIOSCIENCES, INC., priority 2023, published 2026).

For the test, the system named is HCC1428 tumors. Put plainly: Cell line derived xenograft (CDX) study with HCC1428 tumors. The format is in vivo, BALB/c nude mice. The following applies: 45 mg/kg QD p.o.; for TGI value: versus vehicle group. As for the experimental part: For this xenograft, supplemental estradiol benzoate injections (40 μg/20 μl/mouse) are administered subcutaneously twice a week to BALB/c nude mice, starting one week prior to cell implantation and continuing through to the end of study. After implantation, HCC1428 tumor were allocated to treatment arms once a median tumor volume of about 181 mm^3 was reached. In Table 3A the abbreviation “p.o.” refers to oral administration and the abbreviation “QD×28” refers to administration once a day for 28 days.
Tumors were measured and mice were weighed twice a week during the experimental period. The tumor volume (mm3) was estimated using the formula: TV=a×b2/2, where “a” and “b” were the long and the short diameter of a tumor, respectively. The Tumor volumes were used to calculate tumor growth inhibition (TGI, an indicator of antitumor activity) using the formula: TGI %: (1−{T/T0/Ct/C0}/1−{C0/Ct})×100 where Tt=median tumor volume of treated at time t, T0=median tumor volume of treated at time 0, Ct=median tumor volume of control at time t and C0=median tumor volume of control at time 0.
For this xenograft, supplemental estradiol benzoate injections (40 μg/20 μl/mouse) are administered subcutaneously twice a week to BALB/c nude mice, starting one week prior to cell implantation and continuing through to the end of study. After implantation, HCC1428 tumor were allocated to treatment arms once a median tumor volume of about 181 mm^3 was reached. In Table 4A the abbreviation “p.o.” refers to oral administration and the abbreviation “QD×28” refers to administration once a day for 28 days.
Tumors were measured and mice were weighed twice a week during the experimental period. The tumor volume (mm^3) was estimated using the formula: TV=a×b2/2, where “a” and “b” were the long and the short diameter of a tumor, respectively. The Tumor volumes were used to calculate tumor growth inhibition (TGI, an indicator of antitumor activity) using the formula: TGI %: (1−{T/T0/Ct/C0}/1−{C0/Ct})×100 where Tt=median tumor volume of treated at time t, T0=median tumor volume of treated at time 0, Ct=median tumor volume of control at time t and C0=median tumor volume of control at time 0. […] At 100 mg/kg QD the mean tumor volume achieved was 116 mm3, on Day 71. The tumor growth inhibition (TGI) of these treatments compared with vehicle group on Day 28 or 71 of the treatment is summarized in Table 4B (See FIG. 3).

Under “Compound A study”, `NC(=O)c1cccc2cn(-c3ccc([C@@H]4CCCNC4)cc3)nc12` [niraparib, reference compound] had a mean tumor volume of 230 mm^3 and a TGI value of 75.2%. Under “Compound B study”, this compound registered a mean tumor volume of 230 mm^3 and a TGI value of 75.2%.
